pIC50, pKi: −log10 of the molar value.
Key:
[1] = DRUGMATRIX: beta-Lactamase enzyme inhibition (substrate: Nitrocefin); design: species or system Bacillus cereus; conditions: Not Active = under 50% inhibition at 10 µM
[2] = target: T1, Endothelin-1 receptor (Homo sapiens, UniProt P25101); assay type: cell membranes, CHO-K1, Membrane; conditions: for IC50: cho-k1; as to all read-outs here: in other assays of this panel Not Active means under 50% inhibition at 10 µM
T1 sequence (P25101 whole entry): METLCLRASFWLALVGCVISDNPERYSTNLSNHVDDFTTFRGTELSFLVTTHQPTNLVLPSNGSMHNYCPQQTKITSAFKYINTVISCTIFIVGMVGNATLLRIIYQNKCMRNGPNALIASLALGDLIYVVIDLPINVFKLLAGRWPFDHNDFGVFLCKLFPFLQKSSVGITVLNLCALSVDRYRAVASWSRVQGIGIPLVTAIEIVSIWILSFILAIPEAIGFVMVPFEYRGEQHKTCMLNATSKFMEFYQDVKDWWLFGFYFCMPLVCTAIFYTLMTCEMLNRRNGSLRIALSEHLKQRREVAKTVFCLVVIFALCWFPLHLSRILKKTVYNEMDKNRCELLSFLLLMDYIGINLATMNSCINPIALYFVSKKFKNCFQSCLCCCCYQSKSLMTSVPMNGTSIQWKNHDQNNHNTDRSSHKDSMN

[3] = DRUGMATRIX: Glutamate, AMPA radioligand binding (ligand: [3H] AMPA); assay type: cell membranes, Rattus norvegicus, Wistar, Cerebral cortex, Membrane; conditions: Not Active = under 50% inhibition at 10 µM
[4] = target: Insulin receptor (Rattus norvegicus, UniProt P15127); assay type: cell membranes, Wistar, Liver, Membrane; also: in other assays of this panel Not Active means under 50% inhibition at 10 µM
[5] = DRUGMATRIX: Interleukin IL-1 radioligand binding (ligand: [125I] interleukin 1beta); assay type: cell membranes, Membrane; conditions: nih3t3; Not Active = under 50% inhibition at 10 µM
[6] = DRUGMATRIX: Leukotriene, BLT (LTB4) radioligand binding (ligand: [3H]LTB4); assay type: cell membranes, Membrane; conditions: u-937; Not Active = under 50% inhibition at 10 µM
[7] = target: T2, Caspase-1 (Homo sapiens, UniProt P29466); design: species or system Escherichia coli;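 also: Caspase-1 enzyme inhibition assay with a peptide substrate; in other assays of this panel Not Active means under 50% inhibition at 10 µM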
T2 sequence (P29466 whole entry): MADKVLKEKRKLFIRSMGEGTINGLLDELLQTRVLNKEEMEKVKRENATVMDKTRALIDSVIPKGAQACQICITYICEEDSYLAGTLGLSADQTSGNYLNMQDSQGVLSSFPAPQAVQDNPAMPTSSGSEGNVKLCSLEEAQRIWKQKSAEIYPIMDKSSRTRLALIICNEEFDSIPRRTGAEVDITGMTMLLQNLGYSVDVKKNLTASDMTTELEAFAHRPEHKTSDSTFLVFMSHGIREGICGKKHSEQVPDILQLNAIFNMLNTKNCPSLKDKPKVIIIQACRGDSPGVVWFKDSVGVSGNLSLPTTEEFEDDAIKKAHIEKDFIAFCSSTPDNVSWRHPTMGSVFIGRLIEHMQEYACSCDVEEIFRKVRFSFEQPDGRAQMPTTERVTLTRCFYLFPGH

[8] = target: Voltage-gated inwardly rectifying potassium channel KCNH2 (Homo sapiens, UniProt Q12809); conditions: hek293; also: in other assays of this panel Not Active means under 50% inhibition at 10 µM
[9] = target: Cytochrome P450 2D6 (Homo sapiens, UniProt P10635); conditions: bti-tn-5b1-4; also: in other assays of this panel Not Active means under 50% inhibition at 10 µM
Chain of Cytochrome P450 2D6 (P10635 whole entry): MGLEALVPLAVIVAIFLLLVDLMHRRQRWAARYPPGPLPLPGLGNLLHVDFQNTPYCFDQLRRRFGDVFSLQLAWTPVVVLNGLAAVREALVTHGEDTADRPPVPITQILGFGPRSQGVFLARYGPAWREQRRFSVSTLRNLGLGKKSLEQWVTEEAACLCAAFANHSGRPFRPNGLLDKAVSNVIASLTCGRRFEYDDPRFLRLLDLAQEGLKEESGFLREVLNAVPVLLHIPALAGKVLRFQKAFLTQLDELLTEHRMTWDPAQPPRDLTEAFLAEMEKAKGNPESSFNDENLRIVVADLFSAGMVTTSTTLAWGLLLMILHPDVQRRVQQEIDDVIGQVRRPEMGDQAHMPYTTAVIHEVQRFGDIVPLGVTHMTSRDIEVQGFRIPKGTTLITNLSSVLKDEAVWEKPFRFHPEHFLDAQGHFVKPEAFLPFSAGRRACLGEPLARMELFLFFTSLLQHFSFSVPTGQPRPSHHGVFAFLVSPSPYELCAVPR

Chain of Insulin receptor (P15127 27-759 limits assumed): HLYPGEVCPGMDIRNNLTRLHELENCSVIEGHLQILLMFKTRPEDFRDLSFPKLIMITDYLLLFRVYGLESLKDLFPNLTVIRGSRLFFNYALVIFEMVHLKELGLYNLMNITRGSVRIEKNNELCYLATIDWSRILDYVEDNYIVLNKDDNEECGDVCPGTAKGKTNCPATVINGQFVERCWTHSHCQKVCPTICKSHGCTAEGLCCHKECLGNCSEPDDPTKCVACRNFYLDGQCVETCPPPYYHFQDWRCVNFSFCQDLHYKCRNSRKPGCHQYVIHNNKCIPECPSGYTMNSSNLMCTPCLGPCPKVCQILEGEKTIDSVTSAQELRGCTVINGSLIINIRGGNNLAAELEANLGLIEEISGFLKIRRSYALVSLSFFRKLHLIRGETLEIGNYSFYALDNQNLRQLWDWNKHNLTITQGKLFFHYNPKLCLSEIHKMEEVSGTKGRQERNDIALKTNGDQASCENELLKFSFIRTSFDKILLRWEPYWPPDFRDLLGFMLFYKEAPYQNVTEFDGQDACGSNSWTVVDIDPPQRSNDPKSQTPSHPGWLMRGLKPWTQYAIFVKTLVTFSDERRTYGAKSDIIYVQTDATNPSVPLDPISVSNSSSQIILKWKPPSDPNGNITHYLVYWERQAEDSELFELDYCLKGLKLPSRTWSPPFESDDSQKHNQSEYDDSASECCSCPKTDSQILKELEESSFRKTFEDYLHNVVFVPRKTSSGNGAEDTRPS
Chain of Insulin receptor (P15127 764-1383 limits assumed): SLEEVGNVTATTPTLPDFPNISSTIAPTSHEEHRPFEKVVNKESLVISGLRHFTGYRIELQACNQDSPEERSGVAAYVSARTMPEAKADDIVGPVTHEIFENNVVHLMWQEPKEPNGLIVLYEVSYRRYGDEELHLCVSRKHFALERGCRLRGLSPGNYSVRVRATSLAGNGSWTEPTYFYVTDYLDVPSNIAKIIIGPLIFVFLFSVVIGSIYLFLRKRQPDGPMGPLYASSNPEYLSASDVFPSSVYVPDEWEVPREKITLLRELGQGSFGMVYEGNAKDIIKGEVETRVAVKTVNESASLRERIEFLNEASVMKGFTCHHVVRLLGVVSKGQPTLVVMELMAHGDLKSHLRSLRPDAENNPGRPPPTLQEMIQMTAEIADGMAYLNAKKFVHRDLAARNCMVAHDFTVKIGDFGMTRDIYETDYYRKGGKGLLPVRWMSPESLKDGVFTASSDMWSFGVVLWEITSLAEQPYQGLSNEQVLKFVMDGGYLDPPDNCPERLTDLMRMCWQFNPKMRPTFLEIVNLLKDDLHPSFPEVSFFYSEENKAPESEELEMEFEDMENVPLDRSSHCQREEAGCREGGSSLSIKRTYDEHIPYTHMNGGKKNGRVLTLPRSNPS
Chain of Voltage-gated inwardly rectifying potassium channel KCNH2 (Q12809 whole entry): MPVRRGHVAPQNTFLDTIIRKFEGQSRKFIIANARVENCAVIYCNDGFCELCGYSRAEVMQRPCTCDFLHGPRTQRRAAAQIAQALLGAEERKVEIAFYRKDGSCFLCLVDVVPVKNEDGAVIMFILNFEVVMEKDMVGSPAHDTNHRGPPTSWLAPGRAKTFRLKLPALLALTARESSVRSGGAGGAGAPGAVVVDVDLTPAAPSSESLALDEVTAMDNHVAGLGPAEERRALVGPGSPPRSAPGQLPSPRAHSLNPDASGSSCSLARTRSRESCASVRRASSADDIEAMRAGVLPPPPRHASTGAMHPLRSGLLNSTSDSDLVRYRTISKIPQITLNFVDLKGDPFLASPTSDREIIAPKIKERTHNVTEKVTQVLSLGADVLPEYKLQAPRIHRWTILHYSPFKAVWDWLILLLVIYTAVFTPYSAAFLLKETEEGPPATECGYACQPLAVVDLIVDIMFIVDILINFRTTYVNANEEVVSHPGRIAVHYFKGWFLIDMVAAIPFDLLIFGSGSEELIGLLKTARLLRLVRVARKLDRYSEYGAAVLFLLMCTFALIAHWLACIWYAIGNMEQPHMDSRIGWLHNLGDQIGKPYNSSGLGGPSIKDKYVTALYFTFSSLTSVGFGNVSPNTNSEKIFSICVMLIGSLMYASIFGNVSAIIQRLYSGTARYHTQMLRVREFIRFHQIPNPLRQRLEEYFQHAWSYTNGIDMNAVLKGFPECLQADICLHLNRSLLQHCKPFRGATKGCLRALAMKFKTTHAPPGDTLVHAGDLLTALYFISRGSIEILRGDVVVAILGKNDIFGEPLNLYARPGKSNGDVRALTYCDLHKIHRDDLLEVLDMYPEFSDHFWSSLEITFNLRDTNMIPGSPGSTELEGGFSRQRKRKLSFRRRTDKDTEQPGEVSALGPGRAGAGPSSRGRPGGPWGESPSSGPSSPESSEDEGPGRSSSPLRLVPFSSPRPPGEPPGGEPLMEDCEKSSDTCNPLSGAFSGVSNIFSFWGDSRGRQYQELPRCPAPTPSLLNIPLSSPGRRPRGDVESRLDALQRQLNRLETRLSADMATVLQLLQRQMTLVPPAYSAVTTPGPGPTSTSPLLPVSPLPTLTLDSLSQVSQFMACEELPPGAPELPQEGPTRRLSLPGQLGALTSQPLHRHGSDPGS

Row | Compound | IC50 [1] | Ki [1] | IC50 [2] | IC50 [3] | Ki [3] | IC50 [4] | IC50 [5] | Ki [5] | IC50 [6] | Ki [6] | IC50 [7] | IC50 [8] | Ki [8] | IC50 [9] | Ki [9] | pIC50 ([2]; read-out: IC50) | pKi ([2]; read-out: Ki)
1 | COc1cc(N)nc2[nH]c(-c3ccc(F)cc3)c(-c3ccncc3)c12 | Not Active | Not Active | Not Active | Not Active | Not Active | Not Active | Not Active | Not Active | Not Active | Not Active | Not Active | Not Active | Not Active |  |  |  | 
2 | CNS(=O)(=O)Cc1ccc2[nH]cc(CCN(C)C)c2c1 | Not Active | Not Active | Not Active | Not Active | Not Active | Not Active | Not Active | Not Active | Not Active | Not Active | Not Active | Not Active | Not Active | Not Active | Not Active |  | 
3 | CCCc1nn(C)c2c(=O)[nH]c(-c3cc(S(=O)(=O)N4CCN(C)CC4)ccc3OCC)nc12 | Not Active | Not Active | Not Active | Not Active | Not Active | Not Active | Not Active | Not Active | Not Active | Not Active | Not Active |  |  | Not Active | Not Active |  | 
4 | COc1ccc(/C=C/C(=O)Nc2ccccc2C(=O)O)cc1OC | Not Active | Not Active | Not Active | Not Active | Not Active | Not Active | Not Active | Not Active | Not Active | Not Active | Not Active | Not Active | Not Active | Not Active | Not Active |  | 
5 | CCOC(N)=O | Not Active | Not Active | Not Active | Not Active | Not Active | Not Active | Not Active | Not Active | Not Active | Not Active | Not Active | Not Active | Not Active | Not Active | Not Active |  | 
6 | CC(=O)Nc1nnc(S(N)(=O)=O)s1 [ACETAZOLAMIDE] |  |  | Not Active |  |  | Not Active |  |  |  |  | Not Active | Not Active | Not Active | Not Active | Not Active |  | 
7 | O=c1[nH]c2ccccc2n1CCCN1CCC(n2c(=O)[nH]c3cc(Cl)ccc32)CC1 [DOMPERIDONE] |  |  | Not Active |  |  | Not Active |  |  |  |  | Not Active | Not Active | Not Active |  |  |  | 
8 | CC1=C(CC(=O)O)c2cc(F)ccc2/C1=C\c1ccc(S(C)(=O)=O)cc1 [EXISULIND] | Not Active | Not Active |  | Not Active | Not Active | Not Active | Not Active | Not Active | Not Active | Not Active | Not Active | Not Active | Not Active | Not Active | Not Active | 5.01 | 5.22
9 | CC(C)OC(=O)C(C)(C)Oc1ccc(C(=O)c2ccc(Cl)cc2)cc1 [FENOFIBRATE] |  |  | Not Active |  |  | Not Active |  |  |  |  | Not Active | Not Active | Not Active |  |  |  | 
10 | OCCN1CCN(CCCN2c3ccccc3Sc3ccc(C(F)(F)F)cc32)CC1 [FLUPHENAZINE] |  |  | Not Active |  |  | Not Active |  |  |  |  | Not Active |  |  |  |  |  | 
11 | CN1C2CCCC1CC(NC(=O)c1nn(C)c3ccccc13)C2 (configuration not stated) [GRANISETRON] |  |  | Not Active |  |  | Not Active |  |  |  |  | Not Active | Not Active | Not Active |  |  |  | 

Reference: ChEMBL document CHEMBL1909046, “DrugMatrix in vitro pharmacology data”
